Molecular target: T1, NmGNAT (Nakamurella multipartita, UniProt C8XEF8)
T1 sequence (C8XEF8 1-164): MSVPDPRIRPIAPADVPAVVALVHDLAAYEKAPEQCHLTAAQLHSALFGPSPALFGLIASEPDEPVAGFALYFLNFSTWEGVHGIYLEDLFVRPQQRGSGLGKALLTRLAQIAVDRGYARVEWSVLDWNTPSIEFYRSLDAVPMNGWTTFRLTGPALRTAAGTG
Experiment: microscale thermophoresis
Assay type: binding

Structure (SMILES) | Kd [µM]
CC(=O)SCCNC(=O)CCNC(=O)[C@H](O)C(C)(C)COP(=O)(O)OP(=O)(O)OC[C@H]1O[C@@H](n2cnc3c(N)ncnc32)[C@H](O)[C@@H]1OP(=O)(O)O [acetyl-CoA] | 18.9 ± 3.2
NCCCC[C@H](N)C(=O)O [lysine] | 137 ± 4.2
